# Assay results: article PMC2880318 (Immunome Research, 2010)
# Where a SMILES comes first, the peptide text is derived from it.
# Target: purified HLA-DRB1*0101 (Homo sapiens, UniProt P01903+P01911, A100R/D57E/F55L/F60I/F76Y/I96L/L162R/M171V/P40L/Q125E/R42F/V115G/Y59C)
# Assay: biochemical
# Type: binding
row,SMILES,IC50
1,CC[C@H](C)[C@H](NC(=O)[C@H](Cc1c[nH]c2ccccc12)NC(=O)[C@H](CC(=O)O)NC(=O)[C@H](Cc1ccccc1)NC(=O)[C@H](CCC(=O)O)NC(=O)[C@@H]1CCCN1C(=O)[C@H](CO)NC(=O)CNC(=O)[C@@H](N)CCCCN)C(=O)N[C@@H](CC(C)C)C(=O)NCC(=O)N[C@@H](Cc1c[nH]c2ccccc12)C(=O)N[C@H](C(=O)N[C@H](C(=O)N[C@@H](CCCCN)C(=O)O)[C@@H](C)CC)[C@@H](C)O [GTOV GPC131-145] (H-KGSPEFDWILGWTIK-OH),1.7 nM
2,CC[C@H](C)[C@H](NC(=O)[C@H](CC(C)C)NC(=O)[C@H](CCCNC(=N)N)NC(=O)[C@H](Cc1c[nH]cn1)NC(=O)[C@H](Cc1ccc(O)cc1)NC(=O)[C@H](CCC(=O)O)NC(=O)[C@H](CCC(N)=O)NC(=O)[C@@H](N)CC(=O)O)C(=O)N[C@@H](Cc1c[nH]cn1)C(=O)N[C@@H](CO)C(=O)N[C@@H](CC(C)C)C(=O)N[C@@H](CO)C(=O)N[C@@H](CCCCN)C(=O)N[C@H](C(=O)N[C@@H](CO)C(=O)O)[C@@H](C)O [GTOV L181-195] (H-DQEYHRLIHSLSKTS-OH),0.34 nM
3,CC[C@H](C)[C@H](NC(=O)[C@H](CC(=O)O)NC(=O)[C@H](CC(C)C)NC(=O)[C@@H](NC(=O)[C@@H](N)CCCNC(=N)N)C(C)C)C(=O)N[C@@H](CC(C)C)C(=O)N[C@H](C(=O)N[C@@H](C)C(=O)N[C@@H](CCCNC(=N)N)C(=O)N[C@@H](CCCNC(=N)N)C(=O)N[C@@H](CC(C)C)C(=O)N[C@@H](CC(C)C)C(=O)N[C@@H](CC(C)C)C(=O)N[C@@H](CCCCN)C(=O)N[C@@H](CCCCN)C(=O)O)C(C)C [GTOV L391-405] (H-RVLDILVARRLLLKK-OH),0.19 nM
4,CC[C@H](C)[C@H](N)C(=O)N[C@@H](CCC(N)=O)C(=O)N[C@@H](CC(C)C)C(=O)N[C@H](C(=O)N[C@@H](Cc1ccccc1)C(=O)N[C@@H](CO)C(=O)N[C@@H](CO)C(=O)N[C@@H](CCSC)C(=O)N[C@H](C(=O)N[C@@H](CC(N)=O)C(=O)N1CCC[C@H]1C(=O)N[C@@H](CC(C)C)C(=O)N[C@H](C(=O)N[C@H](C(=O)N[C@H](C(=O)O)[C@@H](C)O)[C@@H](C)CC)C(C)C)[C@@H](C)CC)C(C)C [GTOV L1826-1840] (H-IQLVFSSMINPLVIT-OH),0.23 nM
5,CC[C@H](C)[C@H](NC(=O)[C@@H](NC(=O)[C@H](CC(C)C)NC(=O)[C@H](C)NC(=O)[C@@H]1CCCN1C(=O)[C@H](CCSC)NC(=O)[C@H](CO)NC(=O)CNC(=O)[C@H](Cc1ccccc1)NC(=O)[C@H](CCC(N)=O)NC(=O)[C@H](CC(N)=O)NC(=O)[C@H](CC(N)=O)NC(=O)[C@H](CC(C)C)NC(=O)[C@@H](N)CCCCN)[C@@H](C)O)C(=O)N[C@@H](C)C(=O)O [GTOV NP166-180],0.12 nM
6,CC(C)C[C@H](NC(=O)CNC(=O)[C@H](CC(C)C)NC(=O)[C@H](CO)NC(=O)[C@@H](NC(=O)[C@H](CC(C)C)NC(=O)[C@H](C)NC(=O)[C@H](CCC(N)=O)NC(=O)[C@@H](NC(=O)[C@@H](NC(=O)[C@H](CC(N)=O)NC(=O)[C@@H](N)CC(N)=O)C(C)C)C(C)C)[C@@H](C)O)C(=O)N[C@@H](CC(C)C)C(=O)N[C@@H](Cc1ccc(O)cc1)C(=O)N[C@H](C(=O)O)[C@@H](C)O [GTOV NP191-205],0.29 nM
7,CC[C@H](C)[C@H](N)C(=O)N[C@@H](CO)C(=O)NCC(=O)N[C@@H](Cc1ccc(O)cc1)C(=O)N[C@@H](CC(N)=O)C(=O)N[C@@H](Cc1ccccc1)C(=O)N[C@@H](CO)C(=O)N[C@@H](CC(C)C)C(=O)N[C@@H](CO)C(=O)N[C@@H](C)C(=O)N[C@@H](C)C(=O)N[C@H](C(=O)N[C@@H](CCCCN)C(=O)N[C@@H](C)C(=O)NCC(=O)O)C(C)C [GTOV NP236-250],0.12 nM
8,CC[C@H](C)[C@H](N)C(=O)N1CCC[C@H]1C(=O)N[C@H](C(=O)N[C@@H](CCC(N)=O)C(=O)N[C@@H](CC(C)C)C(=O)N[C@@H](CC(C)C)C(=O)N1CCC[C@H]1C(=O)N[C@@H](CC(N)=O)C(=O)N[C@H](C(=O)N[C@@H](CC(C)C)C(=O)N[C@H](C(=O)N[C@@H](Cc1ccccc1)C(=O)N[C@@H](CCC(N)=O)C(=O)N[C@@H](C)C(=O)N[C@@H](CCCCN)C(=O)O)C(C)C)[C@@H](C)O)[C@@H](C)CC [GTOV NP541-555] (H-IPIQLLPNTLVFQAK-OH),0.25 nM
9,CC(C)C[C@H](NC(=O)[C@H](C)NC(=O)[C@H](CC(C)C)NC(=O)[C@H](Cc1ccccc1)NC(=O)[C@@H](NC(=O)[C@H](Cc1ccccc1)NC(=O)[C@@H](N)Cc1ccccc1)C(C)C)C(=O)N[C@@H](C)C(=O)NCC(=O)N[C@@H](CCCNC(=N)N)C(=O)N[C@@H](CO)C(=O)N[C@@H](CS)C(=O)N[C@H](C(=O)N[C@@H](CCC(=O)O)C(=O)N[C@@H](CCC(=O)O)C(=O)O)[C@@H](C)O [JUNV GPC46-60],0.23 nM
10,CC[C@H](C)[C@H](NC(=O)[C@H](CC(=O)O)NC(=O)[C@H](CC(C)C)NC(=O)[C@H](CC(C)C)NC(=O)[C@H](CCCNC(=N)N)NC(=O)[C@H](CC(=O)O)NC(=O)[C@H](CC(N)=O)NC(=O)[C@@H](NC(=O)[C@H](CC(C)C)NC(=O)[C@H](CCSC)NC(=O)[C@H](CC(C)C)NC(=O)[C@H](CCSC)NC(=O)[C@H](CCC(N)=O)NC(=O)CNC(=O)[C@@H](N)C(C)C)C(C)C)C(=O)O [JUNV L381-395],0.21 nM
11,CC[C@H](C)[C@H](NC(=O)[C@H](C)NC(=O)[C@H](CCC(=O)O)NC(=O)[C@H](CC(C)C)NC(=O)[C@@H](NC(=O)[C@H](CC(=O)O)NC(=O)[C@H](CC(C)C)NC(=O)[C@H](CC(C)C)NC(=O)[C@@H](N)CCCNC(=N)N)[C@@H](C)CC)C(=O)N[C@@H](CCCCN)C(=O)N[C@@H](CC(C)C)C(=O)N[C@H](C(=O)N[C@@H](CCCNC(=N)N)C(=O)N[C@@H](CCCCN)C(=O)N[C@@H](CCCCN)C(=O)O)[C@@H](C)CC [JUNV L391-405],0.48 nM
12,CSCC[C@H](NC(=O)[C@H](CCC(N)=O)NC(=O)[C@@H](NC(=O)[C@H](Cc1c[nH]c2ccccc12)NC(=O)[C@@H](N)CCCCN)C(C)C)C(=O)N[C@@H](CS)C(=O)N[C@@H](CO)C(=O)N[C@@H](CCCNC(=N)N)C(=O)N[C@H](C(=O)N[C@@H](CC(C)C)C(=O)N[C@@H](CCCCN)C(=O)N[C@@H](CC(N)=O)C(=O)N[C@@H](CO)C(=O)N[C@@H](Cc1c[nH]cn1)C(=O)N[C@@H](CCC(N)=O)C(=O)O)[C@@H](C)O [JUNV L411-425],1.1 nM
13,CC[C@H](C)[C@H](NC(=O)[C@H](CC(=O)O)NC(=O)[C@H](CC(N)=O)NC(=O)[C@H](Cc1ccccc1)NC(=O)[C@@H](NC(=O)[C@H](CCCCN)NC(=O)[C@H](CCCNC(=N)N)NC(=O)[C@H](C)NC(=O)[C@H](CS)NC(=O)[C@H](CC(N)=O)NC(=O)[C@H](CCCNC(=N)N)NC(=O)[C@@H](NC(=O)[C@H](Cc1ccccc1)NC(=O)[C@@H](N)CCSC)[C@@H](C)CC)C(C)C)C(=O)N[C@@H](CCCCN)C(=O)O [JUNV L1491-1505],2 nM
14,CC(C)[C@H](NC(=O)[C@H](C)NC(=O)[C@H](CCCCN)NC(=O)[C@@H]1CCCN1C(=O)[C@H](CCCCN)NC(=O)[C@@H](NC(=O)[C@H](C)NC(=O)[C@H](Cc1c[nH]c2ccccc12)NC(=O)[C@H](Cc1ccccc1)NC(=O)[C@H](Cc1ccccc1)NC(=O)[C@H](CC(N)=O)NC(=O)[C@H](CCCCN)NC(=O)[C@@H](N)CC(N)=O)C(C)C)C(=O)N[C@@H](CCCNC(=N)N)C(=O)N[C@@H](CCC(N)=O)C(=O)O [JUNV L1711-1725],0.06 nM
15,CC[C@H](C)[C@H](NC(=O)[C@@H]1CCCN1C(=O)[C@H](CO)NC(=O)[C@@H]1CCCN1)C(=O)NCC(=O)N[C@@H](Cc1ccc(O)cc1)C(=O)N[C@@H](CC(C)C)C(=O)NCC(=O)N[C@@H](CC(C)C)C(=O)N[C@@H](CC(C)C)C(=O)N[C@@H](CO)C(=O)N[C@@H](CCC(N)=O)C(=O)N[C@@H](CCCNC(=N)N)C(=O)N[C@H](C(=O)N[C@@H](CCCNC(=N)N)C(=O)O)[C@@H](C)O [LASV GPC236-250],0.14 nM
16,CC[C@H](C)[C@H](NC(=O)[C@H](Cc1ccc(O)cc1)NC(=O)[C@@H](NC(=O)[C@H](CC(=O)O)NC(=O)[C@H](CCCNC(=N)N)NC(=O)[C@@H](NC(=O)[C@H](CCCNC(=N)N)NC(=O)[C@H](CCC(N)=O)NC(=O)[C@H](CO)NC(=O)[C@H](CC(C)C)NC(=O)[C@H](CC(C)C)NC(=O)CNC(=O)[C@H](CC(C)C)NC(=O)[C@@H](N)Cc1ccc(O)cc1)[C@@H](C)O)[C@@H](C)CC)C(=O)N[C@@H](CO)C(=O)O [LASV GPC241-255],0.29 nM
17,CC(C)C[C@H](NC(=O)CNC(=O)[C@H](CS)NC(=O)[C@@H](N)CO)C(=O)N[C@@H](Cc1ccc(O)cc1)C(=O)N[C@@H](CCCCN)C(=O)N[C@@H](CCC(N)=O)C(=O)N1CCC[C@H]1C(=O)NCC(=O)N[C@H](C(=O)N1CCC[C@H]1C(=O)N[C@H](C(=O)N[C@@H](CCCNC(=N)N)C(=O)N[C@@H](Cc1c[nH]c2ccccc12)C(=O)N[C@@H](CCCCN)C(=O)O)C(C)C)C(C)C [LASV GPC476-490],1.5 nM
18,CC[C@H](C)[C@H](NC(=O)[C@H](Cc1ccc(O)cc1)NC(=O)[C@H](CC(=O)O)NC(=O)[C@H](CCCCN)NC(=O)[C@H](CCCNC(=N)N)NC(=O)[C@@H](N)CC(C)C)C(=O)N[C@@H](CCCCN)C(=O)N[C@@H](CCCNC(=N)N)C(=O)N[C@@H](CCC(N)=O)C(=O)NCC(=O)N[C@@H](CO)C(=O)N[C@H](C(=O)N1CCC[C@H]1C(=O)N[C@@H](CC(C)C)C(=O)N[C@@H](C)C(=O)O)[C@@H](C)O [LCMV GPC421-435],4.8 nM
19,CC[C@H](C)[C@H](NC(=O)[C@H](CC(C)C)NC(=O)CNC(=O)[C@H](CCC(=O)O)NC(=O)[C@@H]1CCCN1C(=O)[C@H](CC(N)=O)NC(=O)[C@@H](NC(=O)[C@H](CCCCN)NC(=O)[C@H](CCC(N)=O)NC(=O)[C@H](Cc1ccccc1)NC(=O)[C@H](CC(N)=O)NC(=O)[C@@H](N)CCCNC(=N)N)C(C)C)C(=O)N[C@@H](CCCCN)C(=O)N[C@@H](CCC(=O)O)C(=O)N[C@@H](Cc1ccccc1)C(=O)O [LCMV L256-270] (H-RNFQKVNPEGLIKEF-OH),5.6 nM
20,CC[C@H](C)[C@H](NC(=O)[C@H](CCC(=O)O)NC(=O)[C@H](CO)NC(=O)[C@H](CC(C)C)NC(=O)[C@@H](NC(=O)[C@@H](NC(=O)[C@H](CCCCN)NC(=O)[C@H](CCCNC(=N)N)NC(=O)[C@H](CC(C)C)NC(=O)[C@@H](N)Cc1c[nH]cn1)C(C)C)[C@@H](C)CC)C(=O)N[C@@H](CO)C(=O)N[C@@H](Cc1ccccc1)C(=O)N[C@@H](Cc1c[nH]cn1)C(=O)N[C@@H](CC(C)C)C(=O)N[C@H](C(=O)O)C(C)C [LCMV L946-960] (H-HLRKVILSEISFHLV-OH),2.1 nM
